The values below come from ChEMBL document CHEMBL6109048, “Innovative design and potential applications of covalent strategy in drug discovery” (Eur J Med Chem, 2025).

In experiment [1] the target is Cyclin-dependent kinase 3 (Homo sapiens, UniProt Q00526). Description: Inhibition of recombinant CDK3 (unknown origin).
The target in the next experiment is T1, Cathepsin G (Homo sapiens, UniProt P08311).
T1 sequence (P08311 whole entry): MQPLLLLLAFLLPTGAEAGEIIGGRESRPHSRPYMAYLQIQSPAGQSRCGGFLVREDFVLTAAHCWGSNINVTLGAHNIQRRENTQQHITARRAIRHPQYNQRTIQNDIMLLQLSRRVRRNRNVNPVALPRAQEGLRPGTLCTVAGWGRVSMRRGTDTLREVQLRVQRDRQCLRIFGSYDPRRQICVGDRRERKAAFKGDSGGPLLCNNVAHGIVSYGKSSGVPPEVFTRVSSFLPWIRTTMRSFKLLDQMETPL
The experiment can be described thus: Inhibition of human Cathepsin G.

Experiment [2] concerns the target T2, Tyrosine-protein kinase JAK3 (Homo sapiens, UniProt P52333).
T2 sequence (P52333 whole entry): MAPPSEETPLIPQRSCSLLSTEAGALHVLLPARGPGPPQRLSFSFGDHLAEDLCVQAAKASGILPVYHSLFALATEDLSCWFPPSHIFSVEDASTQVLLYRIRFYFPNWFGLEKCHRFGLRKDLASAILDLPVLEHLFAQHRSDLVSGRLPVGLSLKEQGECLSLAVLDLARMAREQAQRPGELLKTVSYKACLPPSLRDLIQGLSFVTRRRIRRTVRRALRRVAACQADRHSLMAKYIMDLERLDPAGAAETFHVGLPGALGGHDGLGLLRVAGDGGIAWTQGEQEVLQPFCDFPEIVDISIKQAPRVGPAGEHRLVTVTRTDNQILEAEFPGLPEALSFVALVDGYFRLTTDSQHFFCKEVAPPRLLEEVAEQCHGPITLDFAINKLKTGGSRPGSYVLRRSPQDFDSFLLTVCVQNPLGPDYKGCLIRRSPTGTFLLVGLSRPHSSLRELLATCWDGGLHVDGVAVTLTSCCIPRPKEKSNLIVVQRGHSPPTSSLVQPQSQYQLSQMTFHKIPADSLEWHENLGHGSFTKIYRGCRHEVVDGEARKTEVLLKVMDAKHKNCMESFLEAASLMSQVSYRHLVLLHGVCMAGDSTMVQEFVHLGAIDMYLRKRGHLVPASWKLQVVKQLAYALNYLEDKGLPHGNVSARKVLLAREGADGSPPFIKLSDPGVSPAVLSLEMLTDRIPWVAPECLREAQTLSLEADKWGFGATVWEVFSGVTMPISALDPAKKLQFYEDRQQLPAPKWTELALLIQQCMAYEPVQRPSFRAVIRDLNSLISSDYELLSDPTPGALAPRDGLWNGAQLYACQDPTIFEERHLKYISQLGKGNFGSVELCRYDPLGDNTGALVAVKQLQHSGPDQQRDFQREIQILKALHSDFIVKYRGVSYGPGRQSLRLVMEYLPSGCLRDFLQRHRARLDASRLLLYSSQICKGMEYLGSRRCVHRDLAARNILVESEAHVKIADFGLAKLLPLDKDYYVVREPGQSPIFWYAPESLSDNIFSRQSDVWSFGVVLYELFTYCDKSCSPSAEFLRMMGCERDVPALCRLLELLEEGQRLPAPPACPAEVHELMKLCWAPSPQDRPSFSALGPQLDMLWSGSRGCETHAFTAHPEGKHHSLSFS
The experiment can be described thus: Inhibition of JAK3 (unknown origin).

Experiment [3] addresses Epidermal growth factor receptor (Homo sapiens, UniProt P00533). The experiment can be described thus: Inhibition of EGFR (unknown origin) by ADP-Glo kinase assay.
For experiment [4], the target named is Tyrosine-protein kinase ABL1 (Homo sapiens, UniProt P00519). The experiment can be described thus: Inhibition of 6His/SUMO- tagged human ABL1 (229 to 500 residues) extracted from Escherichia coli BL21 (DE3).
In experiment [5] the target is Mast/stem cell growth factor receptor Kit (Homo sapiens, UniProt P10721). Description: Inhibition of c-KIT (unknown origin).
A further experiment has as its target SRSF protein kinase 1 (Homo sapiens, UniProt Q96SB4). The experiment can be described thus: Inhibition of SRPK1 (unknown origin).
A further experiment deals with T3, Neutrophil elastase (Homo sapiens, UniProt P08246).
T3 sequence (P08246 whole entry): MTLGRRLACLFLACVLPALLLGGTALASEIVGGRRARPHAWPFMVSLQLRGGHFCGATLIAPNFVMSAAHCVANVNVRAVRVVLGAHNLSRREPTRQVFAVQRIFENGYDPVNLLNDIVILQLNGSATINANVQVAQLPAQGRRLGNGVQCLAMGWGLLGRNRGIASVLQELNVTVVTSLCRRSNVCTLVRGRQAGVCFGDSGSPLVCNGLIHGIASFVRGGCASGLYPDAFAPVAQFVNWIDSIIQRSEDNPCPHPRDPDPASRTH
Description: Inhibition of human neutrophil elastase.

pIC50: −log10 of the molar value.

Chain of Tyrosine-protein kinase ABL1 (P00519 whole entry, the tested form may be a part): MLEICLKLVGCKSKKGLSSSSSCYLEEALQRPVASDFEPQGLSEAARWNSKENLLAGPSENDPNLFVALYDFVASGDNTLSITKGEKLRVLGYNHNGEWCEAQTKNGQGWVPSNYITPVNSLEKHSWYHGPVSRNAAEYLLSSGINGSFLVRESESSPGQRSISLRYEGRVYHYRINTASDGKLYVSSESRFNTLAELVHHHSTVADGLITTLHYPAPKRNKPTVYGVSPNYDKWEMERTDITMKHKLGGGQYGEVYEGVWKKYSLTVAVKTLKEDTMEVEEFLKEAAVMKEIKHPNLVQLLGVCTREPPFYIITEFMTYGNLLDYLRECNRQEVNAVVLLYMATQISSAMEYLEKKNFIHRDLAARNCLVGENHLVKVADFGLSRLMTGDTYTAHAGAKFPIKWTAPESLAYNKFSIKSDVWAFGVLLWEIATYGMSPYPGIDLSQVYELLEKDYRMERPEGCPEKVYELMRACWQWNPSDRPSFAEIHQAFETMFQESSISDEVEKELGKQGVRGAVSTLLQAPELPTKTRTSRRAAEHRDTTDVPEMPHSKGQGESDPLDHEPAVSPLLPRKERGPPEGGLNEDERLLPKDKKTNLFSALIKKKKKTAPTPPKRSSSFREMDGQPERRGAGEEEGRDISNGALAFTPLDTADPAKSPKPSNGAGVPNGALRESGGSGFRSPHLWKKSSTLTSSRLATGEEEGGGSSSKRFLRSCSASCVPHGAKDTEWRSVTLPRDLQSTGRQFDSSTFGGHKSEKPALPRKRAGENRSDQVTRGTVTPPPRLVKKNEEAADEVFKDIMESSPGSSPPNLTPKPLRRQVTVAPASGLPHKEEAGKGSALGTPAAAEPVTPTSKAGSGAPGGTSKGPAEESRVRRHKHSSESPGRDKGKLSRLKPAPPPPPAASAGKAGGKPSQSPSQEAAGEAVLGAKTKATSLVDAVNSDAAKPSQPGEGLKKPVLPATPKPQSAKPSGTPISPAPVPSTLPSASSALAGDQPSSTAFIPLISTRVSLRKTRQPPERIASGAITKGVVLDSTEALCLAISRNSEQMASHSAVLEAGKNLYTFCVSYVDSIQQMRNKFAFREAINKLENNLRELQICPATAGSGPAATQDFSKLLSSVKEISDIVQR
Chain of Epidermal growth factor receptor (P00533 whole entry, the tested form may be a part): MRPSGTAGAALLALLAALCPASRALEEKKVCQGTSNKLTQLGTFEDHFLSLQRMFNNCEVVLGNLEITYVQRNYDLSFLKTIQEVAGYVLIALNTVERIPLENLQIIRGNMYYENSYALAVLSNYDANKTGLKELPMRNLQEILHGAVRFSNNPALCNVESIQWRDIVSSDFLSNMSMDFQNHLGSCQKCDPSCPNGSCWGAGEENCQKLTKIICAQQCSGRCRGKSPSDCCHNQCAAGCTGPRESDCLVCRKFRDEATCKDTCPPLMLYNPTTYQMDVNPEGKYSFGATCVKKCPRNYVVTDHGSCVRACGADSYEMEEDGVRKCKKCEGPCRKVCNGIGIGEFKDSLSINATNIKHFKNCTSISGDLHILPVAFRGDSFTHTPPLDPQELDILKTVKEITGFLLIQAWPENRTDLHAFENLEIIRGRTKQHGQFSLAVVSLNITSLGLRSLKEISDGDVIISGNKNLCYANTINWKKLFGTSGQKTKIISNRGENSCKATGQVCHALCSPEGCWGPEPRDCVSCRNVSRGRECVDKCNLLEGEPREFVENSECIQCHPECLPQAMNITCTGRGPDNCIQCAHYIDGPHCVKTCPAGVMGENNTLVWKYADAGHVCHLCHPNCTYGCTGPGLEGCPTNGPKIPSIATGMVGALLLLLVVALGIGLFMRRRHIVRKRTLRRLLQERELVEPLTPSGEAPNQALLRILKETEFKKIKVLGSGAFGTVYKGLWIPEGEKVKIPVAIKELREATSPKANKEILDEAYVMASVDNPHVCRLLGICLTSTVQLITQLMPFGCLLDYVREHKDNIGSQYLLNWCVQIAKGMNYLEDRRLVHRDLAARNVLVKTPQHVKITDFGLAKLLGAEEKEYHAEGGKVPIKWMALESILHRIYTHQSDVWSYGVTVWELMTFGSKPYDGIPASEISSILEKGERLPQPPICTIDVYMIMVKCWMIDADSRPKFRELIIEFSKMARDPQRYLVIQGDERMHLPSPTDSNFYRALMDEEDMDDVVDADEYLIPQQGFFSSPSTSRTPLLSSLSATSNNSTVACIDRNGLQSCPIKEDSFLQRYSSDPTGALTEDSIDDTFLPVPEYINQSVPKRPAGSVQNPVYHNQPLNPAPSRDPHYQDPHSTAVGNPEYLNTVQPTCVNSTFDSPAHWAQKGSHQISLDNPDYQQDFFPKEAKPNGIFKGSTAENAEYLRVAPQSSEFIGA
Chain of Mast/stem cell growth factor receptor Kit (P10721 whole entry): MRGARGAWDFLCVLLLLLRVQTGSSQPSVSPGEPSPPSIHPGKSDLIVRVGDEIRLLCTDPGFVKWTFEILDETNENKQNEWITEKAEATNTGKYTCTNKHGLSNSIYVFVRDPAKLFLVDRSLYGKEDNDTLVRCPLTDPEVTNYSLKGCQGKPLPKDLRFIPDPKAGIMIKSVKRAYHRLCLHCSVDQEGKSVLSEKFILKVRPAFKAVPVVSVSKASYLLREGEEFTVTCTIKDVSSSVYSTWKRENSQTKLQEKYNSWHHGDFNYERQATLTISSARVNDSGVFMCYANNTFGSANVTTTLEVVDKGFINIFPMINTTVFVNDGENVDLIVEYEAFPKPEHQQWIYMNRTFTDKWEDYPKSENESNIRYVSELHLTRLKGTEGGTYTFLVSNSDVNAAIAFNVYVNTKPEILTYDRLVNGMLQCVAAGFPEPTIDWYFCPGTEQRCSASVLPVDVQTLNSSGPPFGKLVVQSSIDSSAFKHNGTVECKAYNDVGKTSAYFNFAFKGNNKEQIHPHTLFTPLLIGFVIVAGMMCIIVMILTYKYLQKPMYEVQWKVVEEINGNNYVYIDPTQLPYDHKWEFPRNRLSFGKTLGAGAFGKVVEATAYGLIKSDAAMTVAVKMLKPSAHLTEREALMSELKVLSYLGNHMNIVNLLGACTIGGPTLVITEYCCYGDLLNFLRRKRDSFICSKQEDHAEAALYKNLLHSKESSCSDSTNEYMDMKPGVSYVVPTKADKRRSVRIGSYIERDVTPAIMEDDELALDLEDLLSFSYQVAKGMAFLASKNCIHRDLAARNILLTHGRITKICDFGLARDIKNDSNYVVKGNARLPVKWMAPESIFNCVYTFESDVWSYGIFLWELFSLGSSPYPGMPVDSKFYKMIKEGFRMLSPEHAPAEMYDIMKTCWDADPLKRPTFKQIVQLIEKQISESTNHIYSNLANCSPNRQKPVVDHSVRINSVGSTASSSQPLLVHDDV
Chain of SRSF protein kinase 1 (Q96SB4 whole entry): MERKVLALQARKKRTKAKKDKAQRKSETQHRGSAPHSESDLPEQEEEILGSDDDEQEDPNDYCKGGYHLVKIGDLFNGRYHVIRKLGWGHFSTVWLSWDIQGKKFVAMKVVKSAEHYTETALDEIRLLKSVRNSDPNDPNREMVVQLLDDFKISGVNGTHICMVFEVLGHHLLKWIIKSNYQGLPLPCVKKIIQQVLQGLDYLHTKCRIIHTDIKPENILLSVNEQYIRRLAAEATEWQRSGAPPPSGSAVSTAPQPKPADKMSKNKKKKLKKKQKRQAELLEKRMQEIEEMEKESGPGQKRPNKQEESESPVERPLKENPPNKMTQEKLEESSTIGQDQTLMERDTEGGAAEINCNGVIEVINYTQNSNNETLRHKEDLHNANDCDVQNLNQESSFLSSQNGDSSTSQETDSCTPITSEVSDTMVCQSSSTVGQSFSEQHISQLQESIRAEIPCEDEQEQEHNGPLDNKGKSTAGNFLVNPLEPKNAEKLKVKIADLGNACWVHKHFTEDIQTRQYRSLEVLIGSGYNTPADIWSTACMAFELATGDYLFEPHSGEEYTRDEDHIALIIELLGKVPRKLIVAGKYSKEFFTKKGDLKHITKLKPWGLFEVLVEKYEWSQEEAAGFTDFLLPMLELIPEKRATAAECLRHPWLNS
Chain of Cyclin-dependent kinase 3 (Q00526 whole entry): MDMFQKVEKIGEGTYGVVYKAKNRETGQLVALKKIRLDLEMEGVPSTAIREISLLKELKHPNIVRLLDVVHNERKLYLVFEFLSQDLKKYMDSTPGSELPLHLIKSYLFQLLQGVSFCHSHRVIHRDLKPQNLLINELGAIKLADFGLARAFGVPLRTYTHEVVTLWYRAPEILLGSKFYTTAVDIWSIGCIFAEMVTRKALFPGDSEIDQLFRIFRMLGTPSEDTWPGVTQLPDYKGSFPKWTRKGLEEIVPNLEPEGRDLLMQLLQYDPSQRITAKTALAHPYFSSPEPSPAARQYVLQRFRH

With `CN(C)C/C=C/C(=O)Nc1ccc(C(=O)N2CCCC(Nc3ncc(Cl)c(-c4c[nH]c5ccccc45)n3)C2)cc1` (centres undefined), in experiment [1], the pIC50 (as a rule, the IC50 on a negative log10 scale, so that one unit is a factor of ten) is 7.16.

With `O=S(=O)(F)Oc1ccccc1S(=O)(=O)F`, the pIC50 at Cathepsin G was < 6.70.

The compound `CC#CC1Nc2cc(Nc3nccc(C4CN(C)c5ccccc54)n3)ccc2C(C)(C)O1` (centres undefined) showed a pIC50 in experiment [2] of 7.22.

`C#Cc1cc(Nc2ncnc3cc(OCCOC)c(OCCOC)cc23)ccc1C=O`: the pIC50 in experiment [3] was 7.32.

Consider `C#Cc1cc(OC)c(-c2ccc3nc(NC(=O)NCCO)sc3c2)cc1C=O`, for which, in experiment [4], the pIC50 is 8.62.

`CC#CC1=Nc2cc(NC(=O)Cc3ncc(Oc4ccnc5cc(OC)ccc45)cc3OC)ccc2C(C)(C)O1` showed a pIC50 in experiment [5] of 5.68.

In turn, `CCc1cc2c(cc1-c1cc[nH]n1)C(C)(C)C1Cc3cc(C#N)ccc3C1C2=O` (centres undefined) gave a negative-log IC50 (pIC50) against SRSF protein kinase 1 of 8.94.

In the case of `O=S(=O)(F)c1ccccc1S(=O)(=O)F`, the results for the pIC50 against Cathepsin G and against Neutrophil elastase were 6.72 and 5.48, respectively.
